Results: ChEMBL document CHEMBL3576767, “Neo-clerodane diterpenoids from Scutellaria barbata with activity against Epstein-Barr virus lytic replication” (J Nat Prod, 2015)

How the values were obtained:
Human gammaherpesvirus 4 [1] = experiment: Antiviral activity against EBV infected in TPA and sodium butyrate-induced P3HR1 cells assessed as inhibition on EBV lytic replication at 20 uM incubated for 48 hrs by SYBR green dye based real-time PCR method; format: functional; conditions: human gammaherpesvirus 4, P3HR-1, 48 h
Human gammaherpesvirus 4 [2] = experiment: Antiviral activity against EBV infected in TPA and sodium butyrate-induced P3HR1 cells assessed as inhibition on EBV lytic replication incubated for 48 hrs by SYBR green dye based real-time PCR method; format: functional, organism-based; conditions: human gammaherpesvirus 4, P3HR-1, 48 h
[3] = Cytotoxicity against human P3HR1 cells assessed as reduction in cell viability incubated for 48 hrs by trypan blue dye exclusion assay; format: cell-based, P3HR-1
[4] = Selectivity index, ratio of CC50 for human P3HR1 cells to EC50 for EBV infected in TPA and sodium butyrate-induced P3HR1 cells; design: species or system P3HR-1

Row | EC50 (Human gammaherpesvirus 4 [2]) | SMILES | inhibition at 20 µM (Human gammaherpesvirus 4 [1]) | CC50 at 48 h [3] | Ratio CC50/EC50 [4]
1 | – | CC(=O)O[C@H]1[C@H](OC(=O)c2cccnc2)[C@@]2(C)C(C)=CCC[C@@H]2[C@@](C)(/C=C/C2=CC(=O)OC2)[C@@]1(C)O | < 50% | – | –
2 | 9.2 µM | CC1=CCC[C@H]2[C@@]1(C)[C@@H](OC(=O)c1ccccc1)[C@H](OC(=O)C(C)C)[C@](C)(O)[C@]2(C)/C=C/C1=CC(=O)OC1 | > 50% | 49.7 µM | 5.4
3 | 3.2 µM | CC(=O)OC(C(=O)O[C@H]1[C@H](OC(=O)c2ccccc2)[C@@]2(C)C(C)=CCC[C@@H]2[C@@](C)(/C=C/C2=CC(=O)OC2)[C@@]1(C)O)C(C)C (some centres not stated) | > 50% | 148 µM | 46.1
4 | 8.7 µM | CC(=O)O[C@@H](CC1=CC(=O)OC1)[C@]1(C)[C@H]2CCC=C(C)[C@]2(C)[C@@H](OC(=O)c2ccccc2)[C@H](O)[C@]1(C)O | > 50% | 37.8 µM | 4.3
5 | 18.3 µM | CC1=CCC[C@H]2[C@@]1(C)[C@@H](OC(=O)c1ccccc1)[C@H](O)[C@]1(C)O[C@]3(COC(=O)C3)C[C@H](OC(=O)c3ccccc3)[C@]21C | > 50% | 66.5 µM | 3.6
6 | 5.2 µM | CC1=CCC[C@H]2[C@@]1(C)[C@@H](OC(=O)c1ccccc1)[C@H](O)[C@]1(C)O[C@]3(COC(=O)[C@@H]3O)C[C@H](OC(=O)c3ccccc3)[C@]21C | > 50% | 15.1 µM | 2.9
7 | 23.6 µM | CC1=CCC[C@H]2[C@@]1(C)[C@@H](OC(=O)c1ccccc1)[C@H](OC(=O)c1cccnc1)[C@](C)(O)[C@]2(C)/C=C/C1=CC(=O)OC1 | > 50% | 1440 µM | 61.1
8 | 14.3 µM | CC1=CCC[C@H]2[C@@]1(C)[C@@H](OC(=O)c1ccccc1)[C@H](OC(=O)c1ccccc1)[C@](C)(O)[C@]2(C)/C=C/C1=CC(=O)OC1 | > 50% | 30 µM | 2.1
9 | 18.7 µM | CC(=O)OC(C(=O)O[C@H]1[C@H](OC(=O)c2cccnc2)[C@@]2(C)C(C)=CCC[C@@H]2[C@@](C)(/C=C/C2=CC(=O)OC2)[C@@]1(C)O)C(C)C (some centres not stated) | > 50% | 307 µM | 16.4
10 | 9.1 µM | CC1=CCC[C@H]2[C@@]1(C)[C@@H](OC(=O)c1ccccc1)[C@H](O)[C@](C)(O)[C@]2(C)/C=C/C1=CC(=O)OC1 | > 50% | 68.3 µM | 7.5
11 | 12.9 µM | CC(=O)O[C@H]1[C@H](OC(C)=O)[C@]2(C)O[C@]3(CC[C@]2(C)[C@H]2[C@H](OC(=O)c4ccccc4)CC=C(C)[C@]12C)COC(=O)C3 | > 50% | 738 µM | 57.2
12 | 16.4 µM | CC(=O)O[C@H]1[C@H](OC(=O)c2cccnc2)[C@@]2(C)C(C)=CC[C@@H](OC(=O)c3cccnc3)[C@@H]2[C@@]2(C)CC[C@]3(COC(=O)C3)O[C@@]12C | > 50% | 1790 µM | 109.2
13 | 5.43 µM | C=CC(C)(C)c1cc2cc3c(cc2oc1=O)O[C@H](C(C)(C)OC(C)=O)C3 | – | > 150 µM | >39.6
14 | – | CC(=O)O[C@H]1[C@H](OC(=O)C(C)C)[C@](C)(O)[C@](C)(/C=C/C2=CC(=O)OC2)[C@H]2CCC=C(C)[C@]12C | < 50% | – | –
15 | – | CC1=CCC[C@H]2[C@@]1(C)[C@@H](OC(=O)c1cccnc1)[C@H](OC(=O)C(C)C)[C@](C)(O)[C@]2(C)/C=C/C1=CC(=O)OC1 | < 50% | – | –
16 | – | CC(=O)O[C@H]1[C@H](OC(=O)c2ccccc2)[C@](C)(O)[C@](C)(/C=C/C2=CC(=O)OC2)[C@H]2CCC=C(C)[C@]12C | < 50% | – | –
17 | – | CC(=O)O[C@@H](CC1=CC(=O)OC1)[C@]1(C)[C@H]2CCC=C(C)[C@]2(C)[C@@H](OC(C)=O)[C@H](OC(=O)C(C)C)[C@]1(C)O | < 50% | – | –
18 | – | CC(=O)O[C@@H](CC1=CC(=O)OC1)[C@]1(C)[C@H]2CCC=C(C)[C@]2(C)[C@@H](OC(=O)c2cccnc2)[C@H](OC(=O)C(C)C)[C@]1(C)O | < 50% | – | –
19 | – | CC(=O)O[C@@H](CC1=CC(=O)OC1)[C@]1(C)[C@H]2CCC=C(C)[C@]2(C)[C@@H](OC(C)=O)[C@H](OC(C)=O)[C@]1(C)O | < 50% | – | –
20 | – | CC(=O)O[C@@H](CC1=CC(=O)OC1)[C@]1(C)[C@H]2CCC=C(C)[C@]2(C)[C@@H](OC(=O)c2cccnc2)[C@H](OC(=O)c2cccnc2)[C@]1(C)O | < 50% | – | –
21 | – | C=C1[C@@H](O)CC[C@H]2[C@@]1(C)[C@@H](OC(=O)c1ccccc1)[C@H](OC(=O)c1ccccc1)[C@](C)(O)[C@]2(C)/C=C/C1=CC(=O)OC1 | < 50% | – | –
22 | – | CC(=O)O[C@H]1[C@H](OC(C)=O)[C@](C)(O)[C@](C)(/C=C/C2=CC(=O)OC2)[C@H]2CCC=C(C)[C@]12C | < 50% | – | –
23 | – | CC1=CCC[C@H]2[C@@]1(C)[C@@H](OC(=O)c1cccnc1)[C@H](OC(=O)c1cccnc1)[C@](C)(O)[C@]2(C)/C=C/C1=CC(=O)OC1 | < 50% | – | –
24 | – | CC(=O)O[C@H]1[C@H](OC(C)=O)[C@]2(C)O[C@]3(CC[C@]2(C)[C@H]2[C@H](OC(=O)c4cccnc4)CC=C(C)[C@]12C)COC(=O)C3 | < 50% | – | –
25 | – | CC(=O)O[C@H]1[C@H](OC(=O)c2cccnc2)[C@@]2(C)C(C)=CCC[C@@H]2[C@@]2(C)[C@@H](OC(=O)c3cccnc3)C[C@@]3(COC(=O)C3)O[C@@]12C | < 50% | – | –
26 | – | CC1=CCC[C@H]2[C@@]1(C)[C@@H](OC(=O)c1cccnc1)[C@H](OC(=O)c1cccnc1)[C@]1(C)O[C@]3(COC(=O)C3)C[C@H](OC(=O)c3cccnc3)[C@]21C | < 50% | – | –
27 | – | CC(=O)O[C@@H](CC1=CC(=O)OC1)[C@]1(C)[C@H]2CCC=C(C)[C@]2(C)[C@@H](OC(=O)c2cccnc2)[C@H](OC(=O)c2ccccc2)[C@]1(C)O [BARBATELLARINES B] | < 50% | – | –
